The source of these data is PubChem BioAssay (NCI).

Where “and” joins values, the source holds several entries; their conditions need not be identical. Equal values may be shown once.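 These data come from cells grown in 96-well plates and exposed to compound for 48 hours at five concentrations. Abbreviation: GI50, concentration required for 50% inhibition of growth. TGI marks complete inhibition of growth.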

Common to all, as to experiment: inhibition of tumour cell growth, NCI panel, 48 h
The subject of assay [1] is U251 CNS.
Assay [2] has as its system EKVX NSCLC.
In assay [3] the test system is HOP-92 NSCLC.
Assay [4] concerns NCI-H522 lung.
In assay [5] the test system is MOLT-4 leukemia.
Assay [6] has as its system CCRF-CEM leukemia.
In assay [7] the test system is M14 melanoma.
The test system of assay [8] is A549 NSCLC.
Assay [9] has as its system IGROV1 ovarian.

For `CC12CC3CC(C1)CC(N=[N+]=[N-])(C3)C2`, the TGI in assay [1], in assay [2], in assay [3], in assay [4], in [5] and in assay [6] was over 100 µM throughout. Moreover, the TGI in assay [7], in assay [8] and in assay [9] was over 100 µM in each case.

On to `Clc1ccc(SCCCCCCCCCCSc2ccc(Cl)cc2)cc1`, for which the TGI was over 69.8 µM in assay [1]; over 96.6 µM in assay [2]; over 100 µM in assay [3]; over 100 µM in assay [4]; over 100 µM in assay [5]; over 100 µM in assay [6]. The TGI in assay [7], in assay [8] and in assay [9] was over 100 µM each time.

Consider `C=C(C)[C@H](O)C(O)CC(C)[C@@H]1CCC23CC12CCC1[C@@]2(C)CCC(OC(C)=O)C(C)(C)C2CC(OC2OC(COC(C)=O)C(O)C(O)C2O)[C@]13C` (stereo partly specified), for which the TGI amounted to 10.1 µM in assay [1]; 12.7 µM in [2]; 11 µM in assay [3]; 9.91 µM in assay [4]; 8.94 µM in assay [5]; 9.7 µM in assay [6]. The TGI in assay [7] is 9.11 µM; in [8], 12.2 µM; in assay [9], 9.54 µM.

Consider `CCOC(=O)C#Cc1c(CC(=O)OCC)nnn1[C@H]1O[C@@H](CO)[C@@H]2OC(C)(C)O[C@@H]21`, for which the GI50 was 14 µM in assay [1]; 17.3 µM in [2]; 3 µM in [3]; 2.12 µM in assay [4]; 2.79 µM in [5]; 2.04 µM in assay [6]. Also, the GI50 is 3.58 µM in assay [7], 23.7 µM in assay [8] and 16.1 µM in assay [9]. Moreover, the TGI is 27.6 µM in assay [1]; 35.1 µM in assay [2]; 6.94 µM in [3]; 4.09 µM in [4]; 7.73 µM in [5]; 4.97 µM in [6]. The TGI was found to be 12.8 µM in assay [7], 41.9 µM in assay [8] and 36.6 µM in assay [9].

With `CCCCCN(CCCCC)CC(O)c1cc2c(c3ccccc13)CCCC2` (stereo unspecified), the GI50 was 6.33 µM and 11.5 µM in assay [1]; 4.92 µM in [2]; 2.5 µM and 3.53 µM in assay [3]; 2.02 µM and 3.24 µM in [4]; 2.95 µM and 26.4 µM in [5]; 5.55 µM and 9.21 µM in assay [6]. The GI50 is 4.76 µM and 10.4 µM in [7]; 9.87 µM and 12.3 µM in assay [8]; 3.5 µM and 6.44 µM in assay [9]. Further, the TGI in assay [1] was 20.3 µM and 29.6 µM; in [2] it was 17.7 µM; in assay [3] it was 8.94 µM and 17.1 µM; in assay [4], 7.72 µM and 13.4 µM; in [5], 13 µM and > 100 µM; in assay [6] it was 22.5 µM and 91.7 µM. In addition, the TGI in [7] is 16.3 µM and 23.8 µM; in [8], 22.8 µM and 29.7 µM; in assay [9], 17.3 µM and 33.3 µM.

On to `CCOc1ccccc1NC(=O)C1=C(C)NC(C)=C(C(=O)Nc2ccccc2OCC)C1c1ccc(NC(C)=O)cc1`, for which the TGI was over 100 µM in [1]; over 100 µM in assay [2]; over 100 µM in assay [3]; 23.6 µM in [4]; over 100 µM in assay [5]; over 100 µM in assay [6]. The TGI in [7], in assay [8] and in assay [9] was over 100 µM each time.

Turning to `COc1cc([C@@H]2OC(=O)C3C2C(=O)O[C@H]3c2cc(OC)c(OC)c(OC)c2)cc(OC)c1OC` (stereo partly specified), the TGI in assay [1], in assay [2], in [3], in assay [4], in [5] and in [6] was over 100 µM in each case. The TGI in [7], in [8] and in assay [9] was over 100 µM each time.

Turning to `C/C=C/C=C\C1OC(O)([C@H](CC)C(=O)NC/C=C/C=C(\C)[C@H](OC)C(C)C2OC(\C=C/C=C/C=C(\C)C(=O)c3c(O)ccn(C)c3=O)[C@H](O)[C@@H]2O)C(O)C(O)C1(C)C` (stereo partly specified), the TGI in assay [1], in [2], in [3], in assay [4], in assay [5] and in assay [6] was over 100 µM throughout. Besides, the TGI in [7], in assay [8] and in assay [9] was over 100 µM in each case.

Take `O=C(/C=C1/NC(=O)CS1)Nc1ccccc1`: the TGI in assay [1], in assay [2], in [3], in assay [4], in [5] and in [6] was over 100 µM each time. The TGI in [7], in assay [8] and in assay [9] was over 100 µM in each case.

`C[C@@H]1C[C@@]2(O[C@@H]2C)C(=O)O[C@@H]2CCN3CC=C(COC(=O)[C@]1(C)O)[C@H]23`: the TGI in [1], in assay [2], in assay [3], in assay [4], in assay [5] and in assay [6] was over 100 µM in each case. Also, the TGI in assay [7], in assay [8] and in [9] was over 100 µM throughout.

Turning to `O=C1C[C@H]2CC3(CC[C@H]2CN1)OCCO3`, the TGI in assay [1], in assay [2], in assay [3], in assay [4], in assay [5] and in assay [6] was over 100 µM each time. Further, the TGI in assay [7], in [8] and in assay [9] was over 100 µM in each case.

As for `Cc1cc(=O)oc2cc(OCc3nc4ccccc4c(=O)[nH]3)ccc12`, the TGI in [1], in [2], in [3], in assay [4], in [5] and in assay [6] was over 100 µM each time. Moreover, the TGI in assay [7], in [8] and in assay [9] was over 100 µM throughout.
